Test results as given in US8658604B2, “Template-fixed beta-hairpin peptidomimetics with protease inhibitory activity” (Polyphor Ltd, priority 2005, dated 2014).
Where a SMILES comes first, the peptide text is derived from it.

target: T1, Elastase from human neutrophils (Homo sapiens, UniProt P08246); test: Enzymatic assay, elastase; settings: Elastase IC50
T1 sequence (P08246 30-267): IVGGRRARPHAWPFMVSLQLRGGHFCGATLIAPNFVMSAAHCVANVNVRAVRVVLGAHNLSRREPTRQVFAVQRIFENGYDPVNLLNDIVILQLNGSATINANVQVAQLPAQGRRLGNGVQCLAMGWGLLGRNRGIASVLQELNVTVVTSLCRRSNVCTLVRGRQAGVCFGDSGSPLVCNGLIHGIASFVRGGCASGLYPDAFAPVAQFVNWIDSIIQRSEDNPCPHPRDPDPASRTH

SMILES	IC50 [nM]
CC[C@H](C)[C@@H]1NC(=O)[C@@H]2CCCN2C(=O)[C@H]2CCCN2C(=O)[C@H](Cc2ccc(O)cc2)NC(=O)[C@@H]2CSSC[C@H](NC1=O)C(=O)N[C@@H]([C@@H](C)O)C(=O)N[C@@H](C)C(=O)N[C@@H](CO)C(=O)N[C@@H](CC(C)C)C(=O)N1CCC[C@H]1C(=O)N1CCC[C@H]1C(=O)N[C@@H](CCC(N)=O)C(=O)N2 [Ex. 76] (HELM PEPTIDE1{I.C.T.A.S.L.P.P.Q.C.Y.[dP].P}$PEPTIDE1,PEPTIDE1,2:R3-10:R3|PEPTIDE1,PEPTIDE1,1:R1-13:R2$$$V2.0)	71
CCCC[C@@H]1NC(=O)[C@@H]2CCCN2C(=O)[C@H]2CCCN2C(=O)[C@H](Cc2ccc(O)cc2)NC(=O)[C@@H]2CSSC[C@H](NC1=O)C(=O)N[C@@H]([C@@H](C)O)C(=O)N[C@@H]([C@@H](C)O)C(=O)N[C@@H](CO)C(=O)N[C@@H]([C@@H](C)CC)C(=O)N1CCC[C@H]1C(=O)N1CCC[C@H]1C(=O)N[C@@H](Cc1ccc(O)cc1)C(=O)N2 [Ex. 77] (HELM PEPTIDE1{[Nle].C.T.T.S.I.P.P.Y.C.Y.[dP].P}$PEPTIDE1,PEPTIDE1,2:R3-10:R3|PEPTIDE1,PEPTIDE1,1:R1-13:R2$$$V2.0)	68
CCCC[C@@H]1NC(=O)[C@@H]2CCCN2C(=O)[C@H]2CCCN2C(=O)[C@H](Cc2ccc(O)cc2)NC(=O)[C@@H]2CSSC[C@H](NC1=O)C(=O)N[C@@H]([C@@H](C)O)C(=O)N[C@@H](C)C(=O)N[C@@H](CO)C(=O)N[C@@H](CCCC)C(=O)N1CCC[C@H]1C(=O)N1CCC[C@H]1C(=O)N[C@@H](CCC(N)=O)C(=O)N2 [Ex. 79] (HELM PEPTIDE1{[Nle].C.T.A.S.[Nle].P.P.Q.C.Y.[dP].P}$PEPTIDE1,PEPTIDE1,2:R3-10:R3|PEPTIDE1,PEPTIDE1,1:R1-13:R2$$$V2.0)	66
CCCC[C@@H]1NC(=O)[C@@H]2CCCN2C(=O)[C@H]2CCCN2C(=O)[C@H](CCCC)NC(=O)[C@@H]2CSSC[C@H](NC1=O)C(=O)N[C@@H]([C@@H](C)O)C(=O)N[C@@H](C)C(=O)N[C@@H](CO)C(=O)N[C@@H]([C@@H](C)CC)C(=O)N1CCC[C@H]1C(=O)N1CCC[C@H]1C(=O)N[C@@H](CCC(N)=O)C(=O)N2 [Ex. 94] (HELM PEPTIDE1{[Nle].C.T.A.S.I.P.P.Q.C.[Nle].[dP].P}$PEPTIDE1,PEPTIDE1,2:R3-10:R3|PEPTIDE1,PEPTIDE1,1:R1-13:R2$$$V2.0)	50
CC[C@H](C)[C@@H]1NC(=O)[C@H](CO)NC(=O)[C@H](C)NC(=O)[C@H]([C@@H](C)O)NC(=O)[C@@H]2CSSC[C@H](NC(=O)[C@H](CCC(N)=O)NC(=O)[C@@H]3CCCN3C(=O)[C@@H]3CCCN3C1=O)C(=O)N[C@@H](Cc1ccc(O)cc1)C(=O)N1CCC[C@@H]1C(=O)N1CCC[C@H]1C(=O)N[C@@H](C1CCCCC1)C(=O)N2 [Ex. 101] (HELM PEPTIDE1{[O=C([C@@H](N[*:1])C1CCCCC1)[*:2]].C.T.A.S.I.P.P.Q.C.Y.[dP].P}$PEPTIDE1,PEPTIDE1,2:R3-10:R3|PEPTIDE1,PEPTIDE1,1:R1-13:R2$$$V2.0)	49
CCCC[C@@H]1NC(=O)[C@@H]2CCCN2C(=O)[C@H]2CCCN2C(=O)[C@H](Cc2ccc(O)cc2)NC(=O)[C@H](CCCNC(=N)N)NC(=O)[C@H](CCC(N)=O)NC(=O)[C@@H]2CCCN2C(=O)[C@@H]2CCCN2C(=O)[C@H]([C@@H](C)CC)NC(=O)[C@H](CO)NC(=O)[C@H](C)NC(=O)[C@H]([C@@H](C)O)NC(=O)[C@H](CCC(=O)O)NC1=O [Ex. 105] (HELM PEPTIDE1{[Nle].E.T.A.S.I.P.P.Q.R.Y.[dP].P}$PEPTIDE1,PEPTIDE1,1:R1-13:R2$$$V2.0)	34
CCCC[C@@H]1NC(=O)[C@@H]2CCCN2C(=O)[C@H]2CCCN2C(=O)[C@H](Cc2ccc(O)cc2)NC(=O)[C@H](CCCCN)NC(=O)[C@H](CCC(N)=O)NC(=O)[C@@H]2CCCN2C(=O)[C@@H]2CCCN2C(=O)[C@H]([C@@H](C)CC)NC(=O)[C@H](CO)NC(=O)[C@H](C)NC(=O)[C@H]([C@@H](C)O)NC(=O)[C@H]([C@@H](C)O)NC1=O [Ex. 106] (HELM PEPTIDE1{[Nle].T.T.A.S.I.P.P.Q.K.Y.[dP].P}$PEPTIDE1,PEPTIDE1,1:R1-13:R2$$$V2.0)	49
CCCC[C@@H]1NC(=O)[C@@H]2CCCN2C(=O)[C@H]2CCCN2C(=O)[C@H](Cc2ccc(O)cc2)NC(=O)[C@H](CCCNC(=N)N)NC(=O)[C@H](CCC(N)=O)NC(=O)[C@@H]2CCCN2C(=O)[C@@H]2CCCN2C(=O)[C@H]([C@@H](C)CC)NC(=O)[C@H](CO)NC(=O)[C@H](C)NC(=O)[C@H]([C@@H](C)O)NC(=O)[C@H](CCC(N)=O)NC1=O [Ex. 107] (HELM PEPTIDE1{[Nle].Q.T.A.S.I.P.P.Q.R.Y.[dP].P}$PEPTIDE1,PEPTIDE1,1:R1-13:R2$$$V2.0)	51
CCCC[C@@H]1NC(=O)[C@@H]2CCCN2C(=O)[C@H]2CCCN2C(=O)[C@H](Cc2ccc(O)cc2)NC(=O)[C@H](CCSC)NC(=O)[C@H](CCC(N)=O)NC(=O)[C@@H]2CCCN2C(=O)[C@@H]2CCCN2C(=O)[C@H]([C@@H](C)CC)NC(=O)[C@H](CO)NC(=O)[C@H](C)NC(=O)[C@H]([C@@H](C)O)NC(=O)[C@H]([C@@H](C)O)NC1=O [Ex. 108] (HELM PEPTIDE1{[Nle].T.T.A.S.I.P.P.Q.M.Y.[dP].P}$PEPTIDE1,PEPTIDE1,1:R1-13:R2$$$V2.0)	31
CCCC[C@@H]1NC(=O)[C@@H]2CCCN2C(=O)[C@H]2CCCN2C(=O)[C@H](Cc2ccc(O)cc2)NC(=O)[C@H](CCC(N)=O)NC(=O)[C@H](CCC(N)=O)NC(=O)[C@@H]2CCCN2C(=O)[C@@H]2CCCN2C(=O)[C@H]([C@@H](C)CC)NC(=O)[C@H](CO)NC(=O)[C@H](C)NC(=O)[C@H]([C@@H](C)O)NC(=O)[C@H]([C@@H](C)O)NC1=O [Ex. 110] (HELM PEPTIDE1{[Nle].T.T.A.S.I.P.P.Q.Q.Y.[dP].P}$PEPTIDE1,PEPTIDE1,1:R1-13:R2$$$V2.0)	38
CCCC[C@@H]1NC(=O)[C@@H]2CCCN2C(=O)[C@H]2CCCN2C(=O)[C@H](Cc2ccc(O)cc2)NC(=O)[C@H](CO)NC(=O)[C@H](CCC(N)=O)NC(=O)[C@@H]2CCCN2C(=O)[C@@H]2CCCN2C(=O)[C@H]([C@@H](C)CC)NC(=O)[C@H](CO)NC(=O)[C@H](C)NC(=O)[C@H]([C@@H](C)O)NC(=O)[C@H](CCC(N)=O)NC1=O [Ex. 111] (HELM PEPTIDE1{[Nle].Q.T.A.S.I.P.P.Q.S.Y.[dP].P}$PEPTIDE1,PEPTIDE1,1:R1-13:R2$$$V2.0)	46
CCCC[C@@H]1NC(=O)[C@@H]2CCCN2C(=O)[C@H]2CCCN2C(=O)[C@H](Cc2ccc(O)cc2)NC(=O)[C@@H]2CSSC[C@H](NC1=O)C(=O)N[C@@H]([C@@H](C)O)C(=O)N[C@@H](C)C(=O)N[C@@H](CO)C(=O)N[C@@H](CC(C)C)C(=O)N1CCC[C@H]1C(=O)N1CCC[C@H]1C(=O)N[C@@H](Cc1ccc(O)cc1)C(=O)N2 [Ex. 113] (HELM PEPTIDE1{[Nle].C.T.A.S.L.P.P.Y.C.Y.[dP].P}$PEPTIDE1,PEPTIDE1,2:R3-10:R3|PEPTIDE1,PEPTIDE1,1:R1-13:R2$$$V2.0)	35
CCCC[C@@H]1NC(=O)[C@@H]2CCCN2C(=O)[C@@H](CO)NC(=O)[C@H](Cc2ccc(O)cc2)NC(=O)[C@@H]2CSSC[C@H](NC1=O)C(=O)N[C@@H]([C@@H](C)O)C(=O)N[C@@H](C)C(=O)N[C@@H](CO)C(=O)N[C@@H]([C@@H](C)CC)C(=O)N1CCC[C@H]1C(=O)N1CCC[C@H]1C(=O)N[C@@H](CCC(N)=O)C(=O)N2 [Ex. 118] (HELM PEPTIDE1{A.S.I.P.P.Q.C.Y.[dS].P.[Nle].C.T}$PEPTIDE1,PEPTIDE1,7:R3-12:R3|PEPTIDE1,PEPTIDE1,1:R1-13:R2$$$V2.0)	43
CCCC[C@@H]1NC(=O)[C@@H]2CCCN2C(=O)[C@@H](C(C)C)NC(=O)[C@H](Cc2ccc(O)cc2)NC(=O)[C@@H]2CSSC[C@H](NC1=O)C(=O)N[C@@H]([C@@H](C)O)C(=O)N[C@@H](C)C(=O)N[C@@H](CO)C(=O)N[C@@H]([C@@H](C)CC)C(=O)N1CCC[C@H]1C(=O)N1CCC[C@H]1C(=O)N[C@@H](CCC(N)=O)C(=O)N2 [Ex. 119] (HELM PEPTIDE1{A.S.I.P.P.Q.C.Y.[dV].P.[Nle].C.T}$PEPTIDE1,PEPTIDE1,7:R3-12:R3|PEPTIDE1,PEPTIDE1,1:R1-13:R2$$$V2.0)	45
CCCC[C@@H]1NC(=O)[C@H]([C@@H](C)O)NC(=O)[C@@H]([C@H](C)O)NC(=O)[C@H](Cc2ccc(O)cc2)NC(=O)[C@@H]2CSSC[C@H](NC1=O)C(=O)N[C@@H]([C@@H](C)O)C(=O)N[C@@H](C)C(=O)N[C@@H](CO)C(=O)N[C@@H]([C@@H](C)CC)C(=O)N1CCC[C@H]1C(=O)N1CCC[C@H]1C(=O)N[C@@H](CCC(N)=O)C(=O)N2 [Ex. 126] (HELM PEPTIDE1{A.S.I.P.P.Q.C.Y.[dT].T.[Nle].C.T}$PEPTIDE1,PEPTIDE1,7:R3-12:R3|PEPTIDE1,PEPTIDE1,1:R1-13:R2$$$V2.0)	36
CCCC[C@@H]1NC(=O)[C@H]([C@@H](C)O)NC(=O)[C@@H](Cc2ccccc2)NC(=O)[C@H](Cc2ccc(O)cc2)NC(=O)[C@@H]2CSSC[C@H](NC1=O)C(=O)N[C@@H]([C@@H](C)O)C(=O)N[C@@H](C)C(=O)N[C@@H](CO)C(=O)N[C@@H]([C@@H](C)CC)C(=O)N1CCC[C@H]1C(=O)N1CCC[C@H]1C(=O)N[C@@H](CCC(N)=O)C(=O)N2 [Ex. 128] (HELM PEPTIDE1{A.S.I.P.P.Q.C.Y.[dF].T.[Nle].C.T}$PEPTIDE1,PEPTIDE1,7:R3-12:R3|PEPTIDE1,PEPTIDE1,1:R1-13:R2$$$V2.0)	40
CCCCCCCC[C@@H]1NC(=O)[C@H](CO)NC(=O)[C@H](C)NC(=O)[C@H]([C@@H](C)O)NC(=O)[C@@H]2CSSC[C@H](NC(=O)[C@H](CCC(N)=O)NC(=O)[C@@H]3CCCN3C(=O)[C@@H]3CCCN3C1=O)C(=O)N[C@@H](CCC(N)=O)C(=O)N1CCC[C@@H]1C(=O)N1CCC[C@H]1C(=O)N[C@@H](CCCC)C(=O)N2 [Ex. 129] (HELM PEPTIDE1{[Nle].C.T.A.S.[CCCCCCCC[C@H](N[*:1])C(=O)[*:2]].P.P.Q.C.Q.[dP].P}$PEPTIDE1,PEPTIDE1,2:R3-10:R3|PEPTIDE1,PEPTIDE1,1:R1-13:R2$$$V2.0)	30
